Here are results for 23 compounds from patent publication US6423689B1, “Peptidyl calcium channel blockers” (Warner-Lambert Company, priority 1997, dated 2002).

In the test the target is T1, N-type Ca2+ channels in IMR-32 cells (Homo sapiens, UniProt Q00975).
T1 construct: host or cells: IMR-32 cells, differentiated with dibutyryl cAMP and bromodeoxyuridine
The experiment in a line: Inhibition of N-type calcium flux in IMR-32 cells (Indo-1 fluorescence, nitrendipine present). Format: cell-based. The conditions noted are these: for inhibition at 1 µM / inhibition at 10 µM: IMR-32; for IC50: IMR-32 cells, 5 μM nitrendipine, K+ depolarization. Summed up:
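With L-type flux blocked by 5 μM nitrendipine, N-type Ca2+ entry was read as the Indo-1 emission ratio (400/490 nm, excitation 350 nm) at 30° C after KCl depolarization.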
In general terms: A change in cytosolic calcium serves as a functional read-out for many receptors and channels.

T1 sequence (Q00975 whole entry): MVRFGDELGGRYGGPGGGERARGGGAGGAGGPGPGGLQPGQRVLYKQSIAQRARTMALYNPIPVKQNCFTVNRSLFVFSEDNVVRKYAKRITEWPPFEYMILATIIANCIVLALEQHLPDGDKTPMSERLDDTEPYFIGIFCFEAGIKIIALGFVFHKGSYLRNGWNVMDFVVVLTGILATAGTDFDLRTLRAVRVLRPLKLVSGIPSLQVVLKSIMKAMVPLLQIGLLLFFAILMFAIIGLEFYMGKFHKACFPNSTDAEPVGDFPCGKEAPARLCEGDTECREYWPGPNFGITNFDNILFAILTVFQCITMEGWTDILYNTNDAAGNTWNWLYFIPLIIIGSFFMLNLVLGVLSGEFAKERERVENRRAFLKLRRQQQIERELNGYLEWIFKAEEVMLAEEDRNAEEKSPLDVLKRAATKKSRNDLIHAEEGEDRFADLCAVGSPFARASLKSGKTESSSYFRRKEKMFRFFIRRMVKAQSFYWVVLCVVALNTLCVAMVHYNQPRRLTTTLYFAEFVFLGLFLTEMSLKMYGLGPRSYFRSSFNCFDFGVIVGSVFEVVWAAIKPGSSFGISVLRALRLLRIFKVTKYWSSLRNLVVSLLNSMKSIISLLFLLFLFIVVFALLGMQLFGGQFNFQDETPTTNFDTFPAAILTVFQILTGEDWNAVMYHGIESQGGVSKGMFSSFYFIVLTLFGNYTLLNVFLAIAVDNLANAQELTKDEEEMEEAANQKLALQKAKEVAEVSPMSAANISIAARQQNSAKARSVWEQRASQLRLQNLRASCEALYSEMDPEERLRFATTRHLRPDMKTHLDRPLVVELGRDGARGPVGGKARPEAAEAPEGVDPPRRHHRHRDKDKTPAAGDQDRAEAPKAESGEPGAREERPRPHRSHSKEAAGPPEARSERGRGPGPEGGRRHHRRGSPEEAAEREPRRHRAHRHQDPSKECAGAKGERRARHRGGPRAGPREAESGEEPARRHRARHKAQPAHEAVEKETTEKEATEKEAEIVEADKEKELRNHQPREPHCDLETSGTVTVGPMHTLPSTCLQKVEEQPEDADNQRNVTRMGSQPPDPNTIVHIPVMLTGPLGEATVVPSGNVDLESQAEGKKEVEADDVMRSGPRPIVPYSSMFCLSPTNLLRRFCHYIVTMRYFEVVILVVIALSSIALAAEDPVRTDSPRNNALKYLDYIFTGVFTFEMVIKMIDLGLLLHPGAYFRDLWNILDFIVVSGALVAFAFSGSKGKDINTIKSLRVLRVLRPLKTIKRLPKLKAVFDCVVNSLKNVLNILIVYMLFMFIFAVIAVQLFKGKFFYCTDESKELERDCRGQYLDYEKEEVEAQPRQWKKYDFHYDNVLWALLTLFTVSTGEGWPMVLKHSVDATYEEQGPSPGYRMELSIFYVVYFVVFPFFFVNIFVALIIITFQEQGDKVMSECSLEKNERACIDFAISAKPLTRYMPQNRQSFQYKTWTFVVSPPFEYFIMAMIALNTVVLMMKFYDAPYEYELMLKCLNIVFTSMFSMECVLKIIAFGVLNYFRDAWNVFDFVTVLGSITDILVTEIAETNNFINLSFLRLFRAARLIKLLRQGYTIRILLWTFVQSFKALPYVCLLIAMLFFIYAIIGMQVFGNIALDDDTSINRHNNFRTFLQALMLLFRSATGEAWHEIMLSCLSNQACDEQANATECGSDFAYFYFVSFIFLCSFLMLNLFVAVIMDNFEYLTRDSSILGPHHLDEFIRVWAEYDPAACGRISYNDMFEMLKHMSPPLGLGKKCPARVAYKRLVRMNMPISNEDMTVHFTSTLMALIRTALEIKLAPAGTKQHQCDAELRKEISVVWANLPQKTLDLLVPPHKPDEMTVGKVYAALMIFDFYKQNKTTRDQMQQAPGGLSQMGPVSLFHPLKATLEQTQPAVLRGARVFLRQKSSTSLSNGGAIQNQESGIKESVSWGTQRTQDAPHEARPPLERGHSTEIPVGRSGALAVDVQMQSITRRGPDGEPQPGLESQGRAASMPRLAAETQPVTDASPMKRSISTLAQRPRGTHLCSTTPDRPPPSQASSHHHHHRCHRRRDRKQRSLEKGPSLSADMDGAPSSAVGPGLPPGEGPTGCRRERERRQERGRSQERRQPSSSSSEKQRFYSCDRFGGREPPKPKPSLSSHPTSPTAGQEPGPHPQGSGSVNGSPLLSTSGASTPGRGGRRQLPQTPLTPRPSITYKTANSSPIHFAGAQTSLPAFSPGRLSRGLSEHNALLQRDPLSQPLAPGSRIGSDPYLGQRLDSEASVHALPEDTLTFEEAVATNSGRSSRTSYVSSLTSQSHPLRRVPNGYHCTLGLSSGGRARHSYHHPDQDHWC
T1 sequence (P54289 25-956 partner limits assumed): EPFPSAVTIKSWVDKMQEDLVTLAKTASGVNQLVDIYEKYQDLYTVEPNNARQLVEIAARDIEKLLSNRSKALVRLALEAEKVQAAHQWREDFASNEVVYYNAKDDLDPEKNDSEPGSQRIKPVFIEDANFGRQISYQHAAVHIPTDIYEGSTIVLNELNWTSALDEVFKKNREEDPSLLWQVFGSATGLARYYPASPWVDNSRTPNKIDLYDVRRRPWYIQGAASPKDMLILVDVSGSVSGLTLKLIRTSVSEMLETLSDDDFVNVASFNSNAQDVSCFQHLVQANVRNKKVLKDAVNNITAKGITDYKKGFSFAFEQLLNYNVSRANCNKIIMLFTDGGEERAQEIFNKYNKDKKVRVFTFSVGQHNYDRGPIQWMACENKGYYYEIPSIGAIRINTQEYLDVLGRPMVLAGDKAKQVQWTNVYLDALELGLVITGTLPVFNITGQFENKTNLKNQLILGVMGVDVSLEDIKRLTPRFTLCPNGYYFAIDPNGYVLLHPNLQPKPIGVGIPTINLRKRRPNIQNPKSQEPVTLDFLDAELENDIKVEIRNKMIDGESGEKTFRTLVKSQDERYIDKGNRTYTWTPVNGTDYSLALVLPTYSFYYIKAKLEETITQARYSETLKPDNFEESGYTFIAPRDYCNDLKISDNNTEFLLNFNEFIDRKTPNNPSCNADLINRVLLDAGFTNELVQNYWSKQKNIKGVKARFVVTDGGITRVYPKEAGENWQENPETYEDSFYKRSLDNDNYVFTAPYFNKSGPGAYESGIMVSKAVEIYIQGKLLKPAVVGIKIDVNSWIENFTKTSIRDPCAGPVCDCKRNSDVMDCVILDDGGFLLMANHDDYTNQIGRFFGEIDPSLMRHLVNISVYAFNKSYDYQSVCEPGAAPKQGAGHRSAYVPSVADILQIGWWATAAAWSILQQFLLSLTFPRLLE
T1 sequence (P54289 957-1103 partner limits assumed): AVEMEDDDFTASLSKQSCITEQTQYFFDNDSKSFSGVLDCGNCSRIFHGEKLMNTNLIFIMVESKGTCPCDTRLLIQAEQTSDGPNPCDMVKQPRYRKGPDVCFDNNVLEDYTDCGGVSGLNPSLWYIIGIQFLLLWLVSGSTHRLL
T1 sequence (P54284 whole entry partner): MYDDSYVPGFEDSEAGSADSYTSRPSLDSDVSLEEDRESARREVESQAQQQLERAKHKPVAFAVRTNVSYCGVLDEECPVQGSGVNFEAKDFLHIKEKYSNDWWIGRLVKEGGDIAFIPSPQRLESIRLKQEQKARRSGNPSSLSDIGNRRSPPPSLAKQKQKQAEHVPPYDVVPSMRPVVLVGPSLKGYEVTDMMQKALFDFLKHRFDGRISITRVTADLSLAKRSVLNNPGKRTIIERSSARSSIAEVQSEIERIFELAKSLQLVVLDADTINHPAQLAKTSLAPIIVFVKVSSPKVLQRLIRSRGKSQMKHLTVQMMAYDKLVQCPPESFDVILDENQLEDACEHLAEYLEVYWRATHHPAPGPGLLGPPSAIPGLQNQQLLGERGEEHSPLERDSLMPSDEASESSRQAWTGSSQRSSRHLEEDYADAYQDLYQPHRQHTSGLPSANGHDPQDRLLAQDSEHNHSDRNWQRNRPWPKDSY

`CC(C)C[C@H](NC(=O)N1CCCCCC1)C(=O)N[C@@H](Cc1ccc(OCc2ccccc2)cc1)C(=O)N1CCN(C)CC1` [Example 176, [S-(R*,R*)]-Azepane-1-carboxylic acid {1-[1-(4-benzyloxy-benzyl)-2-(4-methyl-piperazin-1-yl)-2-oxo-ethylcarbamoyl]-3-methyl-butyl}-amide]: the inhibition (in general, the relative decrease from the control value, in per cent) at 1 µM was 38%; the inhibition at 10 µM worked out at 86%; the IC50 (as a rule, the concentration needed to halve the response being measured) stood at 1.4 µM.

For `CC(C)C[C@H](NC(=O)N1CCCCCC1)C(=O)N[C@@H](Cc1ccc(OCc2ccccc2)cc1)C(=O)NCc1ccncc1` [Example 178, [S-(R*,R*)]-Azepane-1-carboxylic acid (1-{2-(4-benzyloxy-phenyl)-1-[(pyridin-4-ylmethyl)carbamoyl]-ethylcarbamoyl}-3-methyl-butyl)-amide], the IC50 amounted to 3.1 µM.

As for `CC(C)C[C@H](NC(=O)N1CCCCCC1)C(=O)N[C@@H](Cc1ccc(OCc2ccccc2)cc1)C(=O)N1CCC[C@H]1CN1CCCC1` [Example 179, Azepane-1-carboxylic acid {(S)-1-[(S)-1-(4-benzyloxy-benzyl)-2-oxo-2-[(S)-2-pyrrolidin-1-ylmethyl-pyrrolidin-1-yl]-ethylcarbamoyl]-3-methyl-butyl}-amide], the IC50 is 1.4 µM.

Turning to `CC(C)C[C@H](NC(=O)N1CCCCCC1)C(=O)N[C@@H](Cc1ccc(OCc2ccccc2)cc1)C(=O)NCCN1CCCC1` [Example 181, [S-(R*,R*)]-Azepane-1-carboxylic acid {1-[2-(4-benzyloxy-phenyl)-1-(2-pyrrolidin-1-ylethylcarbamoyl)-ethylcarbamoyl]3-methyl-butyl}-amide], the IC50 worked out at 2.8 µM.

Turning to `CC(C)C[C@H](NC(=O)N1CCCCCC1)C(=O)NC(Cc1ccc(OCc2ccccc2)cc1)C(=O)N[C@@H]1CN2CCC1CC2` (stereo partly drawn) [Example 182, Azepane-1-carboxylic acid {(S)-1-[-1-[(S)-1-aza-bicyclo [2.2.2]-3-ylcarbamoyl]-2-(4-benzyloxy-phenyl)-ethylcarbamoyl]-3-methyl-butyl}-amide], the IC50 worked out at 7.7 µM.

Turning to `CC(C)C[C@H](NC(=O)N1CCCCCC1)C(=O)N[C@@H](Cc1ccc(OCc2ccccc2)cc1)C(=O)N1CCC(N2CCCCC2)CC1` [Example 185, [S-(R*,R*)]-Azepane-1-carboxylic acid {1-[1-(4-benzyloxy-benzyl)-2-[1,4′]bipiperidinyl-1′-yl-2-oxo-ethylcarbamoyl]-3-methyl-butyl}-amide], the IC50 was 2.3 µM.

With `CC(C)C[C@H](NC(=O)N1CCCCCC1)C(=O)N[C@@H](Cc1ccc(OCc2ccccc2)cc1)C(=O)NCCCN1CCN(C)CC1` [Example 187, [S-(R*,R*)]-Azepane-1-carboxylic acid (1-{2-(4-benzyloxy-phenyl)-1-[3-(4-methyl-piperazin-1-yl)-propylcarbamoyl]-ethylcarbamoyl}-3-methyl-butyl)-amide], the inhibition at 1 µM was 20%, the inhibition at 10 µM turned out to be 77% and the IC50 is 4 µM.

In the case of `CCN(CC)C(=O)C1CCCN(C(=O)C(Cc2ccc(OCc3ccccc3)cc2)NC(=O)C(CC(C)C)NC(=O)N2CCCCCC2)C1` (stereo not shown) [Example 188, Azepane-1-carboxylic acid {1-[1-(4-benzyloxy-benzyl)-2-(3-diethylcarbamoyl-piperidin-1-yl)-2-oxo-ethylcarbamoyl]-3-methyl-butyl}-amide], the 50% inhibitory concentration (IC50) stood at 0.78 µM.

Take `CCN(CC)C(=O)C1CCCN(C(=O)C(Cc2ccc(OCc3ccccc3)cc2)NC(=O)C(CC(C)C)NC(=O)N2CCCCCC2)C1` (stereo not shown) [Example 189, Azepane-1-carboxylic acid {1-[1-(4-benzyloxy-benzyl)-2-(3-diethylcarbamoyl-piperidin-1-yl)-2-oxo-ethylcarbamoyl]-3-methyl-butyl}-amide]: the IC50 came to 0.94 µM.

Turning to `CC(C)CC(NC(=O)N1CCCCCC1)C(=O)NC(Cc1ccc(OCc2ccccc2)cc1)C(=O)NCC(O)c1ccccc1` (stereo not shown) [Example 190, Azepane-1-carboxylic acid {1-[2-(4-benzyloxy-phenyl)-1-(2-hydroxy-2phenyl-ethylcarbamoyl)-ethylcarbamoyl]-3-methyl-butyl}-amide], the IC50 stood at 0.79 µM.

With `CC(C)CC(NC(=O)N1CCCCCC1)C(=O)NC(Cc1ccc(OCc2ccccc2)cc1)C(=O)NCCC1CCCN1C` (stereo not shown) [Example 193, Azepane-1-carboxylic acid (1-{2-(4-benzyloxy-phenyl)-1-[2-(1-methyl-pyrrolidin-2-yl)-ethylcarbamoyl]-ethylcarbamoyl}-3-methyl-butyl)-amide], the IC50 was 3.2 µM.

On to `CCCN1CCCC(NC(=O)C(Cc2ccc(OCc3ccccc3)cc2)NC(=O)C(CC(C)C)NC(=O)N2CCCCCC2)C1` (stereo not shown) [Example 195, Azepane-1-carboxylic acid {1-[2-(4-benzyloxy-phenyl)-1-(1-propyl-piperidin-3-ylcarbamoyl)-ethylcarbamoyl]-3-methyl-butyl}-amide], for which the IC50 is 0.58 µM.

Take `CC(C)CC(NC(=O)N1CCCCCC1)C(=O)NC(Cc1ccc(OCc2ccccc2)cc1)C(=O)NCCCN1CCCCC1C` (stereo not shown) [Example 196, Azepane-1-carboxylic acid (1-{2-(4-benzyloxy-phenyl)-1-[3-(2-methyl-piperidin-1-yl)-propylcarbamoyl]-ethylcarbamoyl}-3-methyl-butyl)-amide]: the IC50 is 0.7 µM.

In the case of `CC(C)CC(NC(=O)N1CCCCCC1)C(=O)NC(Cc1ccc(OCc2ccccc2)cc1)C(=O)NC1CCCN(C)C1c1ccccc1` (stereo not shown) [Example 197, Azepane-1-carboxylic acid {1-[2-(4-benzyloxy-phenyl)-1-(1-methyl-2-phenyl-piperidin-3-ylcarbamoyl)-ethylcarbamoyl]-3-methyl-butyl}-amide], the IC50 is 0.22 µM.

Turning to `CC(C)CC(NC(=O)N1CCCCCC1)C(=O)NC(Cc1ccc(OCc2ccccc2)cc1)C(=O)NC1CCCN(CC(C)C)C1` (stereo not shown) [Example 198, Azepane-1-carboxylic acid {1-[2-(4-benzyloxy-phenyl)-1-(1-isobutyl-piperidin-3-ylcarbamoyl)-ethylcarbamoyl]-3-methyl-butyl}-amide], the IC50 came out at 0.36 µM.

With `CC(C)C[C@H](NC(=O)N1CCCCCC1)C(=O)N[C@@H](Cc1ccc(OCc2ccccc2)cc1)C(=O)N1CC(C)OC(C)C1` (stereo partly drawn) [Example 199, [S-(R*,R*)]-Azepane-1-carboxylic acid {1-[1-(4-benzyloxy-benzyl)-2-(2,6-dimethyl-morpholin-4-yl)-2-oxo-ethylcarbamoyl]-3-methyl-butyl}-amide], the inhibition at 1 µM is 36%, the inhibition at 10 µM was 86% and the IC50 is 1.8 µM.

Turning to `CC(C)CC(NC(=O)N1CCCCCC1)C(=O)NC(Cc1ccc(OCc2ccccc2)cc1)C(=O)N1CCCC(C)C1` (stereo not shown) [Example 200, Azepane-1-carboxylic acid {1-[1-(4-benzyloxy-benzyl)-2-(3-methyl-piperidin-1-yl)-2-oxo-ethylcarbamoyl]-3-methyl-butyl}-amide], the inhibition at 1 µM is 53%, the inhibition at 10 µM is 88% and the half-maximal inhibitory concentration (IC50) worked out at 0.9 µM.

On to `CC(C)C[C@H](NC(=O)N1CCCCCC1)C(=O)N[C@@H](Cc1ccc(OCc2ccccc2)cc1)C(=O)N1CCc2ccccc2C1` [Example 201, [S-(R*,R*)]-Azepane-1-carboxylic acid {1-[1-(4-benzyloxy-benzyl)-2-(3,4-dihydro-1H-isoquinolin-2-yl)-2-oxo-ethylcarbamoyl]-3-methyl-butyl}-amide], for which the inhibition at 1 µM worked out at 29%, the inhibition at 10 µM stood at 81% and the IC50 came to 2.4 µM.

Consider `CC(C)C[C@H](NC(=O)N1CCCCCC1)C(=O)N[C@@H](Cc1ccc(OCc2ccccc2)cc1)C(=O)N1CCN(CCO)CC1` [Example 202, [S-(R*,R*)]-Azepane-1-carboxylic acid (1-{1-(4-benzyloxy-benzyl)-2-[4-(2-hydroxy-ethyl)-piperazin-1-yl]-2-oxo-ethylcarbamoyl}-3-methyl-butyl)-amide], for which the inhibition at 1 µM came out at 25%, the inhibition at 10 µM is 79% and the IC50 was found to be 2.8 µM.

For `CC(C)C[C@H](NC(=O)N1CCCCCC1)C(=O)N[C@@H](Cc1ccc(OCc2ccccc2)cc1)C(=O)NC1CC(C)(C)NC(C)(C)C1` [Example 203, [S-(R*,R*)]-Azepane-1-carboxylic acid {1-[2-(4-benzyloxy-phenyl)-1-(2,2,6,6-tetramethyl-piperidin-4-ylcarbamoyl)-ethylcarbamoyl]-3-methyl-butyl}-amide], the inhibition at 1 µM was 15%, the inhibition at 10 µM turned out to be 70% and the IC50 was found to be 4.7 µM.

On to `CC(=O)N1CCN(C(=O)[C@H](Cc2ccc(OCc3ccccc3)cc2)NC(=O)[C@H](CC(C)C)NC(=O)N2CCCCCC2)CC1` [Example 204, [S-(R*,R*)]-Azepane-1-carboxylic acid {1-[2-(4-acetyl-piperazin-1-yl)-1-(4-benzyloxy-benzyl)-2-oxo-ethylcarbamoyl]-3-methyl-butyl}-amide], for which the inhibition at 1 µM came to 13%, the inhibition at 10 µM was 66% and the IC50 turned out to be 5.5 µM.

For the compound `CC(C)C[C@H](NC(=O)N1CCCCCC1)C(=O)N[C@@H](Cc1ccc(OCc2ccccc2)cc1)C(=O)NCC1CCCCC1` [Example 205, [S-(R*,R*)]-Azepane-1-carboxylic acid {1-[2-(4-benzyloxy-phenyl)-1-(cyclohexylmethyl-carbamoyl)-ethylcarbamoyl]-3-methyl-butyl}-amide], the inhibition at 1 µM is 36%, the inhibition at 10 µM came to 72% and the IC50 amounted to 2.4 µM.

Consider `CC(C)C[C@H](NC(=O)N1CCCCCC1)C(=O)N[C@@H](Cc1ccc(OCc2ccccc2)cc1)C(=O)NCC1CC1` [Example 206, [S-(R*,R*)]-Azepane-1-carboxylic acid {1-[2-(4-benzyloxy-phenyl)-1-(cyclopropylmethyl-carbamoyl)-ethylcarbamoyl]-3-methyl-butyl}-amide], for which the inhibition at 1 µM is 37%, the inhibition at 10 µM was determined as 87% and the IC50 came to 1.7 µM.
